ChEMBL document CHEMBL3792311, “In vitro and in vivo activity of ML302F: a thioenolate inhibitor of VIM-subfamily metallo -lactamases” (Medchemcomm, 2016)
Calls of active or inactive are those of the source. The calls are words filed in the database; no cut-off is given here.

Columns and labels:
[1] = test system: Pseudomonas aeruginosa; experiment: Potentiation of meropenem-induced antibacterial activity against VIM2 carbapenemase producing multidrug-resistant Pseudomonas aeruginosa GR64 clinical isolate at 1:8 meropenem:compound ratio by checkerboard method; assay type: functional
[2] = test system: Providencia stuartii; experiment: Potentiation of meropenem-induced antibacterial activity against VIM1 carbapenemase producing multidrug-resistant Providencia stuartii 70 clinical isolate at 1:8 meropenem:compound ratio by checkerboard method; assay type: functional
[3] = test system: Pseudomonas aeruginosa; experiment: Potentiation of meropenem-induced antibacterial activity against VIM2 carbapenemase producing multidrug-resistant Pseudomonas aeruginosa 9 clinical isolate assessed as MIC of meropenem at 1:8 meropenem:compound ratio by broth microtiter dilution method; assay type: functional
[4] = test system: Pseudomonas aeruginosa; experiment: Potentiation of meropenem-induced antibacterial activity against VIM2 carbapenemase producing multidrug-resistant Pseudomonas aeruginosa GR58 clinical isolate assessed as MIC of meropenem at 1:8 meropenem:compound ratio by broth microtiter dilution method; assay type: functional
[5] = test system: Klebsiella pneumoniae; experiment: Antibacterial activity against VIM1 carbapenemase producing multidrug-resistant Klebsiella pneumoniae 177 clinical isolate up to 512 mg/L by broth microtiter dilution method; assay type: functional, organism-based
[6] = test system: Klebsiella pneumoniae; experiment: Potentiation of meropenem-induced antibacterial activity against VIM1 carbapenemase producing multidrug-resistant Klebsiella pneumoniae 177 clinical isolate at 1:8 meropenem:compound ratio by checkerboard method; assay type: functional
[7] = test system: Pseudomonas aeruginosa; experiment: Potentiation of meropenem-induced antibacterial activity against VIM2 carbapenemase producing multidrug-resistant Pseudomonas aeruginosa 16 clinical isolate at 1:8 meropenem:compound ratio by checkerboard method; assay type: functional
[8] = test system: Pseudomonas aeruginosa; experiment: Antibacterial activity against VIM2 carbapenemase producing multidrug-resistant Pseudomonas aeruginosa GR57 clinical isolate up to 512 mg/L by broth microtiter dilution method; assay type: functional, organism-based
[9] = test system: Pseudomonas aeruginosa; experiment: Antibacterial activity against VIM2 carbapenemase producing multidrug-resistant Pseudomonas aeruginosa 50 clinical isolate up to 512 mg/L by broth microtiter dilution method; assay type: functional, organism-based
[10] = test system: Escherichia coli; experiment: Potentiation of meropenem-induced antibacterial activity against VIM4 carbapenemase producing multidrug-resistant Escherichia coli 98 clinical isolate infected in Galleria mellonella larvae assessed as survival rate at 4.8 mg/kg measured at 96 hrs; assay type: functional; settings: Escherichia coli, 98, 96 h
[11] = test system: Pseudomonas aeruginosa; experiment: Potentiation of meropenem-induced antibacterial activity against VIM2 carbapenemase producing multidrug-resistant Pseudomonas aeruginosa 3 clinical isolate at 1:8 meropenem:compound ratio by checkerboard method; assay type: functional
[12] = test system: Pseudomonas aeruginosa; experiment: Potentiation of meropenem-induced antibacterial activity against VIM2 carbapenemase producing multidrug-resistant Pseudomonas aeruginosa GR62 clinical isolate assessed as MIC of meropenem at 1:8 meropenem:compound ratio by broth microtiter dilution method; assay type: functional
[13] = test system: Klebsiella pneumoniae; experiment: Potentiation of meropenem-induced antibacterial activity against VIM4 carbapenemase producing multidrug-resistant Klebsiella pneumoniae 120 clinical isolate at 1:8 meropenem:compound ratio by checkerboard method; assay type: functional
[14] = test system: Enterobacter cloacae; experiment: Potentiation of meropenem-induced antibacterial activity against VIM4 carbapenemase producing multidrug-resistant Enterobacter cloacae 102 clinical isolate at 1:8 meropenem:compound ratio by checkerboard method; assay type: functional
[15] = test system: Pseudomonas aeruginosa; experiment: Potentiation of meropenem-induced antibacterial activity against VIM2 carbapenemase producing multidrug-resistant Pseudomonas aeruginosa GR64 clinical isolate assessed as MIC of meropenem at 1:8 meropenem:compound ratio by broth microtiter dilution method; assay type: functional
[16] = test system: Klebsiella pneumoniae; experiment: Antibacterial activity against VIM4 carbapenemase producing multidrug-resistant Klebsiella pneumoniae 101 clinical isolate up to 512 mg/L by broth microtiter dilution method; assay type: functional, organism-based
[17] = test system: Enterobacter cloacae; experiment: Antibacterial activity against VIM4 carbapenemase producing multidrug-resistant Enterobacter cloacae 102 clinical isolate up to 512 mg/L by broth microtiter dilution method; assay type: functional, organism-based
[18] = test system: Pseudomonas aeruginosa; experiment: Antibacterial activity against VIM2 carbapenemase producing multidrug-resistant Pseudomonas aeruginosa 16 clinical isolate up to 512 mg/L by broth microtiter dilution method; assay type: functional, organism-based
[19] = test system: Pseudomonas aeruginosa; experiment: Antibacterial activity against VIM2 carbapenemase producing multidrug-resistant Pseudomonas aeruginosa 47 clinical isolate up to 512 mg/L by broth microtiter dilution method; assay type: functional, organism-based
[20] = test system: Providencia stuartii; experiment: Potentiation of meropenem-induced antibacterial activity against VIM1 carbapenemase producing multidrug-resistant Providencia stuartii 67 clinical isolate assessed as MIC of meropenem at 1:8 meropenem:compound ratio by broth microtiter dilution method; assay type: functional
[21] = test system: Pseudomonas aeruginosa; experiment: Potentiation of meropenem-induced antibacterial activity against VIM2 carbapenemase producing multidrug-resistant Pseudomonas aeruginosa GR62 clinical isolate at 1:8 meropenem:compound ratio by checkerboard method; assay type: functional
[22] = test system: Pseudomonas aeruginosa; experiment: Antibacterial activity against VIM2 carbapenemase producing multidrug-resistant Pseudomonas aeruginosa GR57 clinical isolate infected in Galleria mellonella larvae assessed as survival rate at 4.8 mg/kg measured at 96 hrs; assay type: functional, organism-based
[23] = test system: Klebsiella pneumoniae; experiment: Potentiation of meropenem-induced antibacterial activity against VIM4 carbapenemase producing multidrug-resistant Klebsiella pneumoniae 101 clinical isolate assessed as MIC of meropenem at 1:8 meropenem:compound ratio by broth microtiter dilution method; assay type: functional
[24] = test system: Pseudomonas aeruginosa; experiment: Potentiation of meropenem-induced antibacterial activity against VIM2 carbapenemase producing multidrug-resistant Pseudomonas aeruginosa 27 clinical isolate assessed as MIC of meropenem at 1:8 meropenem:compound ratio by broth microtiter dilution method; assay type: functional
[25] = test system: Klebsiella pneumoniae; experiment: Potentiation of meropenem-induced antibacterial activity against VIM4 carbapenemase producing multidrug-resistant Klebsiella pneumoniae 101 clinical isolate at 1:8 meropenem:compound ratio by checkerboard method; assay type: functional
[26] = test system: Pseudomonas aeruginosa; experiment: Potentiation of meropenem-induced antibacterial activity against VIM2 carbapenemase producing multidrug-resistant Pseudomonas aeruginosa 15 clinical isolate assessed as MIC of meropenem at 1:8 meropenem:compound ratio by broth microtiter dilution method; assay type: functional
[27] = test system: Klebsiella pneumoniae; experiment: Potentiation of meropenem-induced antibacterial activity against VIM4 carbapenemase producing multidrug-resistant Klebsiella pneumoniae 196 clinical isolate at 1:8 meropenem:compound ratio by checkerboard method; assay type: functional
[28] = test system: Pseudomonas aeruginosa; experiment: Potentiation of meropenem-induced antibacterial activity against VIM2 carbapenemase producing multidrug-resistant Pseudomonas aeruginosa 8 clinical isolate at 1:8 meropenem:compound ratio by checkerboard method; assay type: functional
[29] = test system: Pseudomonas aeruginosa; experiment: Antibacterial activity against VIM2 carbapenemase producing multidrug-resistant Pseudomonas aeruginosa GR64 clinical isolate up to 512 mg/L by broth microtiter dilution method; assay type: functional, organism-based
[30] = test system: Pseudomonas aeruginosa; experiment: Antibacterial activity against VIM2 carbapenemase producing multidrug-resistant Pseudomonas aeruginosa 15 clinical isolate up to 512 mg/L by broth microtiter dilution method; assay type: functional, organism-based

O=C(O)/C(S)=C/c1c(Cl)ccc(Cl)c1Cl
fractional inhibitory concentration index (FICI) [1]: 0.19
fractional inhibitory concentration index (FICI) [2]: 0.14
MIC [3]: 16 µg/mL
MIC [4]: 8 µg/mL
Activity [5]: inactive
fractional inhibitory concentration index (FICI) [6]: 1.02
fractional inhibitory concentration index (FICI) [7]: 0.5
Activity [8]: inactive
Activity [9]: inactive
survival at 4.8 mg/kg [10]: 69%
fractional inhibitory concentration index (FICI) [11]: 0.25
MIC [12]: 8 µg/mL
fractional inhibitory concentration index (FICI) [13]: 0.25
fractional inhibitory concentration index (FICI) [14]: 0.19
MIC [15]: 4 µg/mL
Activity [16]: inactive
Activity [17]: inactive
Activity [18]: inactive
Activity [19]: inactive
MIC [20]: 1 µg/mL
fractional inhibitory concentration index (FICI) [21]: 0.38
Activity [22]: Active
MIC [23]: 2 µg/mL
MIC [24]: 16 µg/mL
fractional inhibitory concentration index (FICI) [25]: 0.09
MIC [26]: 16 µg/mL
fractional inhibitory concentration index (FICI) [27]: 0.08
fractional inhibitory concentration index (FICI) [28]: 0.38
Activity [29]: inactive
Activity [30]: inactive
